From US20060104901A1, “Preventing or treating epithelial tissue damage or hair loss” (priority 2002, published 2006)

Test system: CD1d gene transcription
Experiment: CD1d mRNA by Real Time PCR in primary human keratinocytes under H2O2 chemical stress
Type: cell-based
Conditions: primary human keratinocytes exposed to 300 μM H2O2, KGM with vs without hydrocortisone, RNA at different times after treatment, FIG. 11
Protocol: Primary human keratinocytes were grown in complete KGM before being exposed to 300 μM H2O2 as a stress factor. 48 hours after seeding, KGM medium was replaced by KGM without hydrocortisone and cultures were treated with 300 μM of H2O2. Total RNA was extracted at different time after treatment and CD1d mRNA quantified by Real Time PCR.
For Taq Man Assays, Applied Biosystems recommends to use 10 to 100 ng of initial RNA quantity per well. Consequently, first strand cDNA synthesis was performed in a 20 μl volume using 1 μg of total RNA and […] of random hexamers following the manufacturer's recommendations (Superscript™ First-Strand Synthesis System for RT-PCR, 11904-018, Invitrogen). 1 μl of the resulting cDNA samples was used for amplification by Real Time PCR. […]
All the cDNA samples were tested in triplicate. […] The plate was sealed, centrifuged at 2000 rpm for 30 seconds and placed in a 5700 Sequence Detection System for thermal cycling and fluorescence analysis using the following PCR program: […]
Results were analyzed using the GeneAmp® 5700 SDS software. […]
The gene expression fold changes obtained in the test condition compared to the control condition were determined by the comparative Ct method using the following formula: [formula] […]

C[C@]12CCC(=O)C=C1CC[C@@H]1[C@@H]2[C@@H](O)C[C@@]2(C)[C@H]1CC[C@]2(O)C(=O)CO [Hydrocortisone]
CD1d gene transcription (CD1d mRNA, fold change by comparative Ct method): able to down-regulate CD1d expression | CD1d gene transcription (CD1d mRNA, fold change by comparative Ct method) (listed as hydrocortisone): suppresses CD1d transcription
